Tests used:
cytokine production = experiment: in vitro cytokine production (cellular assay); format: cell-based; settings: assay not described
T-cell proliferation = experiment: in vitro T-cell proliferation (cellular assay); format: cell-based; settings: assay not described
TNFα and IL-1β levels = experiment: LPS Mouse Assay; format: in vivo, Balb-c mice
Description: 7 week old Balb-c mice (n=8) fed and watered ad libitum were dosed at time zero with the compound of Example 1 at 3, 30 and 300 mg/kg in a 1% methylcellulose vehicle by oral gavage (10 ml/kg). 30 minutes after drug treatment mice were intraperitoneally administered with 1 mg/kg LPS (5 ml/kg in normal saline). 2 hours post-LPS challenge blood samples were collected by cardiac puncture under isoflurane anaesthesia. Blood samples were allowed to clot at room temperature for 10 minutes and then put on ice until spun at 6000 g for 3 minutes at 4° C. and then stored at −20° C. until analysis by ELISA for TNFα and IL-1β levels. TNFα and IL-1β levels were reported as pg/ml of serum (mean±SEM) significance was evaluated by a Dunnett's test followed by a Kruskal-Wallis one way analysis followed by a Dunn's test.

[1] = tested on: clinical signs induced in the EAE model; experiment: Experimental Autoimmune Encephalitis (EAE); format: in vivo, Male Lewis rats; settings: 150 mg/kg orally twice a day from the day of inoculation; scored daily from day 7 post-inoculation
Description: Experimental Autoimmune Encephalitis (EAE)
Male Lewis rats (250-290 g) (n=10) were injected into both rear foot-pad with 0.1 ml of an emulsion containing equal parts of guinea-pig spinal cord, phosphate buffered saline and incomplete Freund's adjuvant with 8 mg/ml Mycobacterium tuberculosis H37Ra. The compound of Example 1 (150 mg/kg) was dosed orally in a 10% acacia gum vehicle (1 ml/kg) twice a day from the day of inoculation.
Body weights and neurological scores were observed daily from day 7 post-inoculation. The total daily score was calculated for each group and plotted over time. Non-parametric statistical analyses (Kruskal-Wallis) one-way analysis, followed by a Dunn's test, were employed.

| SMILES | inhibition of cytokine production (cytokine production) | inhibition of T-cell proliferation (T-cell proliferation) | efficacy in the LPS mouse model (summary statement) (TNFα and IL-1β levels; mouse, in vivo) | reduction of TNFα levels post-LPS insult (TNFα and IL-1β levels; serum, ELISA, 3, 30 and 300 mg/kg by oral gavage 30 minutes before 1 mg/kg LPS i.p., blood 2 hours post-LPS, all three doses, dose-dependant) | reduction of IL-1β levels post-LPS (TNFα and IL-1β levels; serum, ELISA, oral gavage 30 minutes before 1 mg/kg LPS i.p., blood 2 hours post-LPS, at the top two doses (30 and 300 mg/kg)) | efficacy on clinical signs (neurological scores) in the EAE model [1] |
| --- | --- | --- | --- | --- | --- | --- |
| O=C(O)c1cc(O)c2c(c1)C(=O)c1cccc(O)c1C2=O [rhein, 1,8-dihydroxyanthraquinone-3-carboxylic acid] | fail to produce a response | fail to produce a response | – | – | – | – |
| O=C(O)c1cc(OC(=O)C2CCOCC2)c2c(c1)C(=O)c1cccc(OC(=O)C3CCOCC3)c1C2=O [Example 1, 4,5-Bis(tetrahydropyran-4-carbonyloxy)-9,10-dioxo-dihydroanthracene-2-carboxylic acid] | – | – | efficacy | significant efficacy on reducing TNFα levels | reduced IL-1β levels | significant efficacy |

From patent US7728035B2, “Ester derivatives of rhein and their therapeutic use” (Sosei R&D Ltd., priority 2004, dated 2010)
